Measurements taken from US9308238B2, “Compositions and methods for modulating EMT and uses thereof” (Whitehead Institute for Biomedical Research, priority 2010, dated 2016).

Columns and labels:
[1] = tested on: HTwist and MSP cells; assay: Mammosphere assay, HTwist and MSP cells; format: cell-based, human; conditions: 10 μM; to a similar extent as added BMP4 protein
Method: FIGS. 10A-10E. […] (FIG. 10E) Mammosphere Assay: HTwist and MSP were treated daily during mammosphere formation (5 days) with BMP4 (0.5 μg/ml), SB431542 (10 μM) or a combination of both, n(mammospheres)/1000 cells, n=6.
(§1) Mammosphere and tumorsphere assay. Assays were performed as previously described with modifications (Dontu et al., 2003): 1000 cells/well were seeded in 96-well ultra-low adhesion plates (Corning) in MEGM medium containing 1.3% methylcellulose (Stem Cell Technologies) supplemented with 20 ng/ml EGF, 10 ng/ml bFGF (both Sigma) and B27 (Gibco). Primary spheres were dissociated by trypsinization and replated for secondary sphere formation after a period of 5-7 days.

[2] = tested on: HTwist and MSP cells; assay: Boyden chamber migration assay, HTwist and MSP cells; format: cell-based, human; conditions: for effect on migration: 10 μM, to a similar extent as added BMP4 protein
Method: (§2) FIGS. 3A-3E. Autocrine Signaling controls migration and mammosphere formation.
FIGS. 10A-10E. […] (FIG. 10C) Mammosphere assay: HTwist cells were treated daily during mammosphere formation (5 days) with proteins as described in (B); *control vs. single treatment, p<1×10^−5, **single vs. double-treatment, p<0.01, n(mammospheres)/1000 cells, n=6, (FIG. 10D) Migration Assay: HTwist and MSP cells were seeded into Boyden Chambers in the presence of TGF-beta Receptor I inhibitors A83-01 and SB431542 (SB43, both at 10 μM). (FIG. 10E) Mammosphere Assay: HTwist and MSP were treated daily during mammosphere formation (5 days) with BMP4 (0.5 μg/ml), SB431542 (10 μM) or a combination of both, n(mammospheres)/1000 cells, n=6.
Migration and invasion assays. For migration assays, 2×10^4 cells were seeded into 24-well cell culture inserts with 8-μm pores (Boyden Chambers, BD Falcon). For invasion assays, matrigel-coated inserts (BD Falcon) were used. After 12-48 hr, the cells on the upper surface of the filters were removed with a cotton swab. For visualization, cells on lower filter surfaces were fixed and stained with a Diff-Quick staining kit (Dade Behring).

[3] = biological target: GSK3; conditions: ATP-competitive manner; cited from earlier work
[4] = tested on: 26 other kinases; conditions: cited from earlier work
[5] = tested on: Cdk-1/cyclin B; conditions: at >100 μM; cited from earlier work
[6] = tested on: PKC; conditions: at >100 μM; cited from earlier work
[7] = tested on: CK-II; conditions: at >100 μM; cited from earlier work
[8] = tested on: PKA; conditions: at >100 μM; cited from earlier work
[9] = tested on: HMLE^24+ cells; assay: Boyden chamber migration assay, HMLE^24+ cells; format: cell-based, human; conditions: 0.5 μg/ml in growth medium
Method: as §2
FIGS. 5A-5H. Concomitant stimulation of Wnt and TGF-beta pathways allows HMLE^24+ cells to enter into a mesenchymal and SC-like state. (FIG. 5A) RT-PCR: N-Cadherin, Zeb1 and Zeb2, L32 was loading control, n=3. Prior RNA isolation, HMLE^24+-shGFP or -shSFRP1 (stable knockdown of SFRP1, FIG. 12A) cells were treated for 3 days with daily doses of indicated factors: anti-DKK1 antibody (10 μg/ml), anti-E-Cadherin antibody (1 μg/ml), TGF-beta 1 (5 ng/ml), Wnt5a (250 ng/ml), (FIG. 5B) Brightfield microscopy: images of control, TGF-beta- and iEMT-cocktail treated HMLE^24+ cells after 14 days of treatment as indicated (see also FIG. 12D). (FIG. 5C) RT-PCR: Zeb1, Zeb2, E-Cadherin and N-Cadherin, L32 was loading control, n=3. After 14 day treatment, cells were expanded in absence of further stimulation for 4 passages. Shown are PBS-treated control HMLE^24+-shGFP and HMLE^24+-shSFRP1 cells, two HMLE^24+-shGFP cultures treated with TGF-beta 1 (TGF-β-a and -b), two HMLE^24+-shSFRP1 cultures treated with the iEMT-cocktail (iEMT-a and -b). (FIG. 5D) Immunoblot: EMT markers and associated autocrine pathways, cells generated as described in (C). (FIG. 5E) Migration (Boyden Chamber Assay) and Mammosphere Assay: cells generated as indicated in (C), *control vs. TGF-beta treatment, p<1×10^−4, **control vs. iEMT-treatment, p<1×10^−9, n(migration)=3, n(mammospheres)/1000 cells, n=7. (FIG. 5F) Flow cytometry: CD44 and CD24 cell-surface marker expression in control, TGF-beta-a and iEMT-a cells generated as described in (C). (FIG. 5G) Lung metastasis: cells expanded for 8 passages after cessation of treatment as described in (C) were transformed with RAS; 1.0×10^5 cells were injected into the mammary fat pads of mice; GFP-labeled metastases on the surface of the lungs were quantified; *control vs. all other groups, p<0.05, n=5 mice/group. […]

[10] = tested on: MSP cells; assay: Mammosphere assay, MSP cells; format: cell-based, human; conditions: added daily for 5 days (FIG. 3D)
Method: as §2, §1

Cc1cccc(-c2nn(C(=S)Nc3ccccc3)cc2-c2ccnc3ccccc23)n1 [A83-01, reference compound]
effect on mammosphere formation [1]: attenuated
effect on migration [2]: attenuated

COc1ccc(CNC(=O)Nc2ncc([N+](=O)[O-])s2)cc1 [AR-A014418, N-(4-Methoxybenzyl)-N′-(5-nitro-1,3-thiazol-2-yl)urea]
inhibition of 26 other kinases [4]: does not significantly inhibit

NC(=O)c1ccc(-c2nc(-c3ccc4c(c3)OCO4)c(-c3ccccn3)[nH]2)cc1 [SB431542, reference compound]
effect on mammosphere formation [1]: attenuated
effect on migration [2]: attenuated

Cn1sc(=O)n(Cc2ccccc2)c1=O [TDZD-8, 4-Benzyl-2-methyl-1,2,4-thiadiazolidine-3,5-dione]
inhibition of Cdk-1/cyclin B [5]: does not inhibit
inhibition of PKC [6]: does not inhibit
inhibition of CK-II [7]: does not inhibit
inhibition of PKA [8]: does not inhibit

B1: DKK1: Recombinant human DKK1 protein (R&D Systems), secreted antagonist of canonical Wnt pathway (protein, UniProt O94907 32-266, looked up)
Dickkopf-related protein 1: TLNSVLNSNAIKNLPPPLGGAAGHPGSAVSAAPGILYPGGNKYQTIDNYQPYPCAEDEECGTDEYCASPTRGGDAGVQICLACRKRRKRCMRHAMCCPGNYCKNGICVSSDQNHFRGEIEETITESFGNDHSTLDGYSRRTTLSSKMYHTKGQEGSVCLRSSDCASGLCCARHFWSKICKPVLKEGQVCTKHRRKGSHGLEIFQRCYCGEGLSCRIQKDHHQASNSSRLHTCQRH
motility of HMLE^24+ cells upon addition of protein [9]: not further reduced
reduction of primary mammosphere number [10]: 20%
reduction of migration ([2]; at the highest concentration): 10 fold
